“And” between values parts separate entries of the source, which are not always exact repeats. Identical values can stand only once. Like-named read-outs stand apart in the source and are kept apart here.
Tests used:
[1] = system: P. falciparum NF54 strain erythrocytic stages; set-up: method as in PMID 21157686; conditions: cited from earlier work
[2] = system: Leishmania donovani axenic amastigotes (MHOM-ET-67/L82 strain); set-up: method as in PMID 21157686; conditions: cited from earlier work
[3] = system: Leishmania donovani axenic amastigotes (MHOM-ET-67/L82 strain); assay: In vitro activity against L. donovani axenic amastigotes (resazurin); assay type: cell-based; conditions: for IC50: Leishmania donovani
Description: (§1) In vitro tests for determination of activity against axenic amastigotes of Leishmania donovani (MHOM-ET-67/L82 strain) and cytotoxicity against mammalian cells (L6-cell-line from rat skeletal myoblasts) as well as against intramacrophage amastigotes of L. donovani were conducted at Swiss TPH according to an established protocol as reported before. For a repetition of these methods, see Supplementary File.
Miltefosine (≥98%, Sigma-Aldrich, Buchs, Switzerland) and podophyllotoxin (≥98%, Sigma-Aldrich, Buchs, Switzerland) were used as positive controls. Growth inhibition assays were meant to give only preliminary information on whether fractions show any bioactivity or not. Due to this explorative nature, this was conducted once. IC50 values represent geometric means of two independent determinations and were calculated by linear regression from the sigmoidal dose inhibition curves using SoftmaxPro (Molecular Devices Cooperation, Sunnyvale, CA, USA) software.
(§2) Biological Assays (according to [14,15])
(§3) The following biological tests were performed by applying validated method s of the Swiss TPH as previously published and described below. […]
(§4) After that, resazurin solution
(§5) (12.5 mg in 100 mL water, 10 μL) was added to each well, and the incubation continued for 2–4 h more. Then, the plates were read using a Spectramax Gemini XS microplate fluorometer (Molecular Devices Cooperation, Sunnyvale, CA, USA) and excitation and emission wavelengths of 536 and 588 nm, respectively. Data were analyzed with the software Softmax Pro (Molecular Devices Cooperation, Sunnyvale, CA, USA), which calculated IC50 values by linear regression and 4‐parameter logistic regression from the sigmoidal dose inhibition curves. […]
In vitro activity against L. donovani axenic amastigotes. Amastigotes of L. donovani strain MHOM/ET/67/L82 were grown in axenic culture at 37 °C in SM medium at pH 5.4 supplemented with 10% heat‐inactivated fetal bovine serum under a 5% CO2 atmosphere. Aliquots containing […] amastigotes from the axenic culture (100 μL), with or without a serial compound dilution (as specified before), were seeded in 96‐well plates. After 70 h of incubation, the plates were inspected under an inverted microscope to assure growth of the controls and sterile conditions.
Then, resazurin solution (12.5 mg in 100 mL water, 10 μL) was added to each well and the plates incubated for another 2 h. Finally, the plates were read using the same conditions mentioned for T. brucei rhodesiense. Data were analyzed in the same way. Miltefosine was used as positive control. […]
(§6) Netherlands). Compounds were diluted with medium as indicated above before being added to parasite cultures incubated in RPMI 1640 medium without hypoxanthine, supplemented with HEPES (5.94 g/L), NaHCO3 (2.1 g/L), neomycin (100 U/mL), AlbumaxR (5 g/L) and washed human red cells A+ at 2.5% hematocrit (0.3% parasitemia).
Serial compound dilutions were prepared as before. The 96‐well plates were incubated in a humidified atmosphere at 37 °C; 4% CO2, 3% O2, 93% N2. After 48 h, 50 μL of 3H‐hypoxanthine (0.5 μCi) was added to each well of the plate. The plates were incubated for a further 24 h under the same conditions. […] The dried filters were inserted into a plastic foil with 10 mL of scintillation fluid and counted in a Betaplate™ liquid scintillation counter (Wallac, Zurich, Switzerland). […]

[4] = In vitro cytotoxicity with L-6 cells (resazurin); assay type: cell-based; conditions: rat, read-out: Cytotoxicity against L6 Rat Skeletal Myoblasts IC50
Description: as §1, §2, §3, §4, §5
Aliquots containing 105 amastigotes from the axenic culture (100 μL), with or without a serial compound dilution (as specified before), were seeded in 96‐well plates. After 70 h of incubation, the plates were inspected under an inverted microscope to assure growth of the controls and sterile conditions. […]
as §6
Serial compound dilutions were prepared as before. The 96‐well plates were incubated in a humidified atmosphere at 37 °C; 4% CO2, 3% O2, 93% N2. After 48 h, 50 μL of 3H‐hypoxanthine (0.5 μCi) was added to each well of the plate. The plates were incubated for a further 24 h under the same conditions. The plates were then harvested with a Betaplate™ cell harvester (Wallac, Zurich, Switzerland), and the red blood cells were transferred onto a glass fiber filter then washed with distilled water. The dried filters were inserted into a plastic foil with 10 mL of scintillation fluid and counted in a Betaplate™ liquid scintillation counter (Wallac, Zurich, Switzerland). […]
(§7) Serial compound dilutions prepared, as before, were us ed. […] Finally, the plates were read, and the data were treated as mentioned before. […]
(§8) Extracellular amast igotes were removed by triplicate washing after further 24 h. […] Images of the plates were recorded with an ImageXpress XLS (MD) microscope and automatically analyzed using the MetaXpress Software. […]

[5] = system: Leishmania donovani intracellular amastigotes; assay: In vitro activity against intracellular amastigotes of L. donovani in peritoneal murine macrophages; assay type: cell-based; conditions: Macrophage
Description: as §1, §2, §3
Serial compound dilutions were prepared as before. […] The dried filters were inserted into a plastic foil with 10 mL of scintillation fluid and counted in a Betaplate™ liquid scintillation counter (Wallac, Zurich, Switzerland). […]
as §7
as §8, with “Software. Infected and non‐infected macrophages, as well as the number of intracellular parasites, were recorded.” for “Software.”

[6] = geometric mean of two independent determinations
[7] = geometric mean of two independent determinations (lower; upper)

| Compound | antiplasmodial activity in vitro [1] | activity against L. donovani axenic amastigotes [2] | SI (selectivity index) ([3]; L6 cytotoxicity vs L. donovani axenic amastigotes) | IC50 [3, 6] [nM] | IC50 [3, 7] [µg/mL] | IC50 at 70 h [4, 7] [µg/mL] | IC50 at 70 h [4, 6] [nM] | IC50 [5] |
| --- | --- | --- | --- | --- | --- | --- | --- | --- |
| C/C1=C\CC/C(C)=C/C[C@](O)(C(C)C)CC/C(C)=C/CC1 [Serratol] | antiplasmodial activity | essentially inactive |  |  |  |  |  |  |
| C[C@H]1[C@H](C)CC[C@]2(C)CC[C@]3(C)C(=CC[C@@H]4[C@@]5(C)CC[C@@H](O)[C@](C)(C(=O)O)[C@@H]5CC[C@]43C)[C@H]12 [Compound 3, β-boswellic acid] |  |  | 6.2 | 5300 | 2.4 | 15 | 33000 |  |
| CCCCCCCCCCCCCCCCOP(=O)([O-])OCC[N+](C)(C)C [PCM, miltefosine] |  |  |  | 120 | 0.047 |  |  | 1.9 µg/mL and 4.7 µM |
| COc1cc([C@@H]2c3cc4c(cc3[C@H](O)[C@H]3COC(=O)[C@H]23)OCO4)cc(OC)c1OC [PCP, podophyllotoxin] |  |  |  |  |  | 0.009 | 20 |  |
